Data reported in the NIST ThermoML archive (doi:10.1021/acs.jced.8b00070).
Numbers after ± are expanded uncertainties.

Test: xn = mol fraction of the nth substance listed
Details: Liquid; for viscosity: Oscillating disk viscometry; for mass density: Vibrating tube method

NCCO [2-aminoethan-1-ol] + O
101.3 kPa
Details	mass density, x1 = 0.0394 [kg/m3]	mass density, x1 = 0.087 [kg/m3]	mass density, x1 = 0.1456 [kg/m3]	mass density, x1 = 0.2197 [kg/m3]	viscosity, x1 = 0.0394 [mPa·s]	viscosity, x1 = 0.087 [mPa·s]	viscosity, x1 = 0.1456 [mPa·s]	viscosity, x1 = 0.2197 [mPa·s]
293.15 K	1005.3 ± 2	1011.8 ± 2	1018.9 ± 2	1025.7 ± 2	1.19 ± 0.36	2.1 ± 0.63	3.06 ± 0.92	5.58 ± 1.7
298.15 K	1003.8 ± 2	1009.9 ± 2	1016.3 ± 2	1022.7 ± 2	1.06 ± 0.32	1.71 ± 0.52	2.69 ± 0.81	4.67 ± 1.4
303.15 K	1002.1 ± 2	1007.7 ± 2	1013.7 ± 2	1019.7 ± 2	0.94 ± 0.28	1.47 ± 0.44	2.29 ± 0.69	3.91 ± 1.2
308.15 K	1000.3 ± 2	1005.6 ± 2	1011.2 ± 2	1016.8 ± 2	0.85 ± 0.26	1.3 ± 0.39	1.91 ± 0.58	3.28 ± 0.99
313.15 K	998.2 ± 2	1003.2 ± 2	1008.5 ± 2	1013.6 ± 2	0.76 ± 0.23	1.15 ± 0.35	1.69 ± 0.51	2.77 ± 0.83
318.15 K	996 ± 2	1000.7 ± 2	1005.7 ± 2	1010.5 ± 2	0.69 ± 0.21	1.03 ± 0.31	1.5 ± 0.45	2.39 ± 0.72
323.15 K	993.8 ± 2	998.2 ± 2	1002.8 ± 2	1007.3 ± 2	0.63 ± 0.19	0.93 ± 0.28	1.33 ± 0.4	2.11 ± 0.64
328.15 K	988.9 ± 2	995.8 ± 2	1000.1 ± 2	1004.4 ± 2	0.58 ± 0.18	0.85 ± 0.26	1.17 ± 0.35	1.85 ± 0.56
333.15 K	987.2 ± 2	995.1 ± 2	999.3 ± 2	1003.2 ± 2	0.54 ± 0.16	0.79 ± 0.24	1.05 ± 0.32	1.65 ± 0.5

CCCCn1cc[n+](C)c1.F[B-](F)(F)F [1-butyl-3-methylimidazolium tetrafluoroborate] + O
Details	mass density, x1 = 0.01 [kg/m3]	mass density, x1 = 0.0227 [kg/m3]	mass density, x1 = 0.0392 [kg/m3]	mass density, x1 = 0.0616 [kg/m3]	mass density, x1 = 0.0938 [kg/m3]	viscosity, x1 = 0.01 [mPa·s]	viscosity, x1 = 0.0227 [mPa·s]	viscosity, x1 = 0.0392 [mPa·s]	viscosity, x1 = 0.0616 [mPa·s]	viscosity, x1 = 0.0938 [mPa·s]
293.15 K, 101 kPa	–	–	–	–	–	1.07 ± 0.32	1.35 ± 0.41	1.84 ± 0.55	2.28 ± 0.69	3.04 ± 0.91
293.15 K, 101.3 kPa	1018.9 ± 2.1	1038.1 ± 2.1	1060.4 ± 2	1079.5 ± 2	1103.7 ± 2	–	–	–	–	–
298.15 K, 101 kPa	–	–	–	–	–	0.95 ± 0.29	1.19 ± 0.36	1.6 ± 0.48	1.98 ± 0.6	2.69 ± 0.81
298.15 K, 101.3 kPa	1017.1 ± 2.1	1036 ± 2.1	1058 ± 2	1076.7 ± 2	1100.6 ± 2	–	–	–	–	–
303.15 K, 101 kPa	–	–	–	–	–	0.84 ± 0.25	1.05 ± 0.32	1.4 ± 0.42	1.75 ± 0.53	2.34 ± 0.7
303.15 K, 101.3 kPa	1015.2 ± 2.1	1033.5 ± 2.1	1055.3 ± 2	1073.6 ± 2	1097.2 ± 2	–	–	–	–	–
308.15 K, 101 kPa	–	–	–	–	–	0.76 ± 0.23	0.95 ± 0.29	1.25 ± 0.38	1.56 ± 0.47	2.06 ± 0.62
308.15 K, 101.3 kPa	1013.2 ± 2.1	1031.3 ± 2.1	1052.6 ± 2	1070.7 ± 2	1093.9 ± 2	–	–	–	–	–
313.15 K, 101 kPa	–	–	–	–	–	0.69 ± 0.21	0.86 ± 0.26	1.13 ± 0.34	1.4 ± 0.42	1.84 ± 0.55
313.15 K, 101.3 kPa	1010.9 ± 2.1	1028.6 ± 2.1	1049.8 ± 2	1067.5 ± 2	1090.5 ± 2	–	–	–	–	–
318.15 K, 101 kPa	–	–	–	–	–	0.64 ± 0.19	0.79 ± 0.24	1.02 ± 0.31	1.27 ± 0.38	1.66 ± 0.5
318.15 K, 101.3 kPa	1008.6 ± 2.1	1025.9 ± 2.1	1046.9 ± 2	1064.3 ± 2	1087.4 ± 2	–	–	–	–	–
323.15 K, 101 kPa	–	–	–	–	–	0.59 ± 0.18	0.74 ± 0.22	0.94 ± 0.28	1.16 ± 0.35	1.48 ± 0.45
323.15 K, 101.3 kPa	1006.1 ± 2.1	1023.4 ± 2.1	1044 ± 2	1061.2 ± 2	1084.1 ± 2	–	–	–	–	–
328.15 K, 101 kPa	–	–	–	–	–	0.55 ± 0.17	0.69 ± 0.21	0.88 ± 0.27	1.07 ± 0.32	1.31 ± 0.39
328.15 K, 101.3 kPa	1001.8 ± 2.1	1019.8 ± 2.1	1041.4 ± 2	1058.3 ± 2	1080.9 ± 2	–	–	–	–	–
333.15 K, 101 kPa	–	–	–	–	–	0.53 ± 0.16	0.62 ± 0.19	0.82 ± 0.25	0.99 ± 0.3	1.26 ± 0.38
333.15 K, 101.3 kPa	999.2 ± 2.1	1017.6 ± 2.1	1040.6 ± 2.1	1057.4 ± 2	1079.9 ± 2	–	–	–	–	–
